Assay results taken from patent US5444042A, “Method of treatment of neurodegeneration with calpain inhibitors” (Cortex Pharmaceuticals, priority 1994, dated 1995).

How the values were obtained:
Calpain I [1] = molecular target: T1, Calpain I (Homo sapiens, UniProt P07384); experiment: Calpain I 14C-methylated casein proteolysis (Table 1A); type: biochemical
T1 sequence (P07384 1-714): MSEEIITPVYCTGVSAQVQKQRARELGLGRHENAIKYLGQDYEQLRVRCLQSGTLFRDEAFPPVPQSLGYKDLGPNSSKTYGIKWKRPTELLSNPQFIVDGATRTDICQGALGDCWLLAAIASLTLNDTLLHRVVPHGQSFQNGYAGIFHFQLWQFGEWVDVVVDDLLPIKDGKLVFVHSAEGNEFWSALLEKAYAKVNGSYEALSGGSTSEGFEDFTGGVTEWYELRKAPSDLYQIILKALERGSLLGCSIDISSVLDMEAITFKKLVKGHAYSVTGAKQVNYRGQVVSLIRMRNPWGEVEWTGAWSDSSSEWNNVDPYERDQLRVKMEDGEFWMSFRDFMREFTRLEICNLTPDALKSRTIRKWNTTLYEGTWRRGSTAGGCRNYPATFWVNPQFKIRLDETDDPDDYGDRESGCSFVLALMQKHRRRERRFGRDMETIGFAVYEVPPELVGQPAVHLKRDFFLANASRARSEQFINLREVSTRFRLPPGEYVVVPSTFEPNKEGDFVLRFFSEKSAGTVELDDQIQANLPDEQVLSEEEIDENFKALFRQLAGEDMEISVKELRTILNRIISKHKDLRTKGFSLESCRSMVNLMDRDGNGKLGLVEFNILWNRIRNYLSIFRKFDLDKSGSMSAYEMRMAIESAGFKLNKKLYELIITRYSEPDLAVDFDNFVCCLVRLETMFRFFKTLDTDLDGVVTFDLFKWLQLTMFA
T1 sequence (P04632 1-268 partner): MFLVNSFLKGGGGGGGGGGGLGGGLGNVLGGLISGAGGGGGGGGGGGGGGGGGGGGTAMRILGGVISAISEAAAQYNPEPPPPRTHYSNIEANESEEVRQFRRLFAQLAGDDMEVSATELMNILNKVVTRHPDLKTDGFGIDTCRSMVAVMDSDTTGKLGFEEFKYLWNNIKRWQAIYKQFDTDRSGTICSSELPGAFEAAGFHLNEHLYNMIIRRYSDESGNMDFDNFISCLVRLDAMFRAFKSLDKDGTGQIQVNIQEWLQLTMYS
Description: The isocoumarins are irreversible inhibitors of Calpain. We obtained IC50 values for a variety of these Calpain Inhibitors as a kinetic analysis of these compounds.
Calpains I and II were purified by the method of (Yoshimura, et al. 1983). (Kitahara 1984) provides an alternative purification scheme. Calpain II may alternatively be purchased from Sigma Chemical Co. as "Calcium Activated Neutral Protease." In this assay, purified Calpain was incubated with ^14 C-methylated casein in the presence of various Heterocyclic Compounds and the amount of acid-soluble radioactivity released by the action of Calpain was measured.

Calpain I [2] = molecular target: T1, Calpain I; experiment: Calpain I KI (Table 1B(ii)); type: biochemical; conditions: Table 1B(ii)
Excerpt: (§1) We tested the ability of an additional group of Peptide Keto-Compounds to inhibit several proteases in order to evaluate their specificity for Calpain.

PP Elastase = PP Elastase (Sus scrofa, UniProt P00772); experiment: PP Elastase KI (Table 1B(ii)); type: biochemical
Excerpt: as §1

Cathepsin B = Cathepsin B (Bos taurus, UniProt P07688); experiment: Cathepsin B KI (Table 1B(ii)); type: biochemical; conditions: read-out: KI CathB
Excerpt: as §1

Calpain II = Calpain II KI (Table 1B(ii)); type: biochemical
Excerpt: as §1

Papain = molecular target: T2, Papain (Carica papaya, UniProt P00784); experiment: Papain KI (Table 1B(ii)); type: biochemical
T2 sequence (P00784 134-345): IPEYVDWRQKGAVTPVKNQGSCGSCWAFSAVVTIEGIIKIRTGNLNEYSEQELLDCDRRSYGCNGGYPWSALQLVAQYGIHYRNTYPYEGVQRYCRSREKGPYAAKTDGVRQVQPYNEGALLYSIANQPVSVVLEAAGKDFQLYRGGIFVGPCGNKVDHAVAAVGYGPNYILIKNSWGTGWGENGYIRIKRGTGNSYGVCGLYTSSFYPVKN
Excerpt: as §1

Chym = Chym (Bos taurus, UniProt P00766); experiment: Chym KI (Table 1B(ii)); type: biochemical
Excerpt: as §1

Calpain within platelets = experiment: Platelet membrane permeation assay, spectrin proteolysis (Examples 4A, 4B); type: cell-based, rat; conditions: for inhibition of Calpain within platelets / platelet assay, semi-quantitative: 100 μM; for inhibition of Calpain within platelets: A23187 1 μM; for IC50: concentration at which 50% of the Calpain activation present in controls occurred
Description: Platelets were isolated by a modification of the method of Ferrell and Martin, J Biol. Chem., 264:20723-20729 (1989), the disclosure of which is hereby incorporated by reference. Blood (15-20 ml) was drawn from male Sprague-Dawley rats into 100 mM EDTA-citrate containing 10 units heparin, and centrifuged 30 minutes at 1600 rpm at room temperature. The plasma was resuspended in 15 ml buffer 1 (136 mM NaCl, 2.7 mM KCl, 0.42 mM NaH2 PO4, 12 mM NaHCO3, 2 mM MgCl2, 2 mg/ml BSA (Sigma), 5.6 mM glucose, 22 mM Na3 Citrate pH 6.5) and platelets were isolated at 2200 rpm at room temperature of 25 minutes. Platelets were resuspended to 10^7 cells/ml in buffer 2 (136 mM NaCl, 2.7 mM KCl, 0.42 NaH2 PO4, 12 mM NaHCO3, 2 mM MgCl, 1 mg/ml BSA, 5.6 mM glucose, 20 mM HEPES pH 7.4) and allowed to "rest" for a minimum of 10 minutes at room temperature before use.
Platelets were incubated for 5 minutes in the presence of inhibitor. In order to provide sufficient intracellular calcium to activate Calpain, the calcium ionophore A23187 was added to a final concentration of 1 μM. After a further 5 minute incubation, the platelets were harvested by centrifugation (1 min 10,000×g) and resuspended in 10% sodium dodecyl sulfate, 10 mM Tris pH=8.0, 5% β-mercaptoethanol, 0.02% bromophenol blue, and heated to 95° C. for 5 min. Samples were subjected to SDS-PAGE on 6% mini gels and transferred to nitrocellulose (Schleicher and Schuell BAS3) for 2 hours at 100 mA/gel in an LKB Novablot. Filters were blocked for 10 minutes in 0.25% gelatin, 1% BSA, 0.25% Triton X100, 0.9% NaCl, 10 mM Tris-Cl pH 7.5, incubated overnight in the same solution containing antibody to rat spectrin, washed 3×10 minutes with 10 mM Tris-Cl pH 7.5, 0.5 % Triton X100, incubated 4 hours in wash buffer plus alkaline phosphatase conjugated goat anti-rabbit antibody (Biorad), and washed as above. Filters were developed using the Biorad AP conjugate substrate kit. Spectrin immunoreactivity on the filters was quantitated by densitometry.

Stability in plasma = type: in vitro ADME; conditions: unit assumed
Excerpt: (§2) We determined the haft-life of several Peptide Keto-Compounds in both plasma and liver homogenates.

[3] = Stability in liver homogenates; type: in vitro ADME; conditions: unit assumed
Excerpt: as §2

[4] = test system: Calpain in crude brain extracts; experiment: Ca2+-stimulated spectrin proteolysis in crude brain extracts (Example 2); type: biochemical; conditions: 100 μM
Description: The activity of Calpain in crude brain extracts was measured by examining the Ca^2+ -stimulated proteolysis of the endogenous substrate spectrin. Brain tissue was homogenized in 10 mM Tris pH=7.4, 0.32M sucrose, 1 mM EGTA, 1 mM dithiothreitol and the nuclei and debris removed by low speed centrifugation. […] Proteolysis of spectrin was evaluated by western blot as described by Seubert, et at. (Brain Research, 459:226-232, 1988), the disclosure of which is hereby incorporated by reference. Briefly, a known quantity of a spectrin-containing sample treated with Calpain is separated by SDS-PAGE and immunoblotted with anti-spectrin antibody. The amount of spectrin immunoreactivity found corresponding to the characteristic BDP's is indicative of the amount of […] activity present in the sample. An examplary method for quantitating BDP's is to assay Spectrin BDP's by homogenizing brain parts in 20 mM Tris pH=7.2, 0.32M sucrose, 50 μM Ac-Leu-Leu-nLeu-H on ice. Homogenates are then mixed 1:1 with 10% SDS, 5% β-mercaptoethanol, 10% glycerol, 10 mM Tris pH=8.0, 0.5% bromophenolblue, heated to 95° C., and subjected to electrophoresis in 41/2% polyacrylamide gels. The proteins in the gels are transferred to nitrocellulose and the spectrin and BDP's detected using a rabbit polyclonal anti-spectrin antibody and established immunodetection methods. The amount of spectrin and BDP's in each sample can be quantitated by densitrometric scanning of the developed nitrocellulose.

Chain of PP Elastase (P00772 27-266): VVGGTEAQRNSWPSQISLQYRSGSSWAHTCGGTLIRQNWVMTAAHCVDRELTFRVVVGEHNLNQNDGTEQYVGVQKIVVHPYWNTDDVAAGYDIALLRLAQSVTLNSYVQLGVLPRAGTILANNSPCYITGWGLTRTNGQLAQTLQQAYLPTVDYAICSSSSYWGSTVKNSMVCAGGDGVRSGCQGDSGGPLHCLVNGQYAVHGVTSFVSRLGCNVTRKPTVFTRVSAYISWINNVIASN

Row | Compound | IC50 (Calpain I [1]) | Ki (PP Elastase) | Ki (Cathepsin B) | Ki (Calpain II) | Ki (Chym) | t1/2 plasma (Stability in plasma) | t1/2 liver [3] | IC50 (Calpain within platelets) | Ki (Calpain I [2]) | Ki (Papain) | inhibition of Calpain within platelets (Calpain within platelets) | platelet assay, semi-quantitative (Calpain within platelets) | inhibition of spectrin proteolysis in crude brain extracts [4]
1 | N=C(N)SCCOc1oc(=O)c2cc(NC(=O)Cc3ccccc3)ccc2c1Cl [PhCH2 CONH-CiTEtOIC, 7-(phenylacetylamino)-4-chloro-3-(2-isothiureidoethoxy)isocoumarin] | 30 µM | – | – | – | – | – | – | – | – | – | – | – | –
2 | CCOC(=O)C(=O)C(Cc1ccc(Cl)cc1)NC(=O)C(CC(C)C)NC(=O)OCc1ccccc1 (centres unmarked) [Z-Leu-4-Cl-Phe-COOEt] | – | > 100 µM | 50 µM | 0.4 µM | 0.9 µM | – | – | – | < 4 µM | 150 µM | significant inhibition | + | –
3 | CCCCNC(=O)C(=O)C(CC)NC(=O)C(CC(C)C)NC(=O)OCc1ccccc1 (stereo not drawn) [Z-Leu-Abu-CONHnBu, Z-Leu-Abu-CONH-nBu] | – | 5 µM | 13 µM | – | > 300 µM | > 1 h | > 1 h | 2 µM | 0.2 µM | – | – | – | –
4 | CCC(NC(=O)C(CC(C)C)NC(=O)OCc1ccccc1)C(=O)C(=O)O (stereo not drawn) [Z-Leu-Abu-COOH] | – | > 150 µM | 1.5 µM | 0.022 µM | > 150 µM | > 1 h | > 1 h | 8 µM | 0.075 µM | – | significant inhibition | – | –
5 | CCCCOC(=O)C(=O)C(CC)NC(=O)C(CC(C)C)NC(=O)OCc1ccccc1 (stereo not drawn) [Z-Leu-Abu-COOnBu, Z-Leu-Abu-CO2 Bu] | – | 25 µM | 4 µM | – | > 100 µM | – | – | 28 µM | – | 10 µM | significant inhibition | – | –
6 | CCOC(=O)C(=O)[C@H](Cc1ccccc1)NC(=O)[C@H](CC(C)C)NC(=O)[C@H](CC(C)C)NC(=O)OCc1ccccc1 [Z-Leu-Leu-Phe-COOEt] | – | > 100 µM | 42 µM | 1.9 µM | 0.26 µM | – | – | – | 1.4 µM | 15 µM | significant inhibition | ++ | –
7 | CC(C)C[C@H](NC(=O)OCc1ccccc1)C(=O)N[C@@H](Cc1ccccc1)C(=O)C(=O)OCc1ccccc1 [Z-Leu-Phe-COOBz, Z-Leu-Phe-CO2 Bzl] | – | > 100 µM | 45 µM | 1.6 µM | 1.6 µM | 0.0317 h | – | – | 3.4 µM | 45 µM | significant inhibition | ++ | –
8 | Z-Leu-Met-CO2 Et [Z-Leu-Met-COOEt] | – | > 100 µM | 55 µM | 1.5 µM | 1.75 µM | 0.133 h | – | – | 1 µM | 140 µM | significant inhibition | + | significant inhibition

Continued, in another order:

Row | IC50 (Calpain I [1]) | Ki (PP Elastase) | Ki (Cathepsin B) | Ki (Calpain II) | Ki (Chym) | t1/2 plasma (Stability in plasma) | t1/2 liver [3] | IC50 (Calpain within platelets) | Compound | Ki (Calpain I [2]) | Ki (Papain) | inhibition of Calpain within platelets (Calpain within platelets) | platelet assay, semi-quantitative (Calpain within platelets) | inhibition of spectrin proteolysis in crude brain extracts [4]
9 | – | – | 2 µM | 0.35 µM | > 300 µM | > 1 h | > 1 h | 1.5 µM | CCC(NC(=O)C(CC(C)C)NC(=O)OCc1ccccc1)C(=O)C(=O)NCc1ccccc1 (stereo not drawn) [Z-Leu-Abu-CONHBz, Z-Leu-Abu-CONH-Bzl] | – | – | – | – | –
10 | – | 2 µM | 8 µM | 0.25 µM | > 300 µM | > 1 h | > 1 h | 70 µM | CCCNC(=O)C(=O)[C@H](CC)NC(=O)[C@H](CC(C)C)NC(=O)OCc1ccccc1 [Z-Leu-Abu-CONHnPr, Z-Leu-Abu-CONH-nPr] | – | – | – | – | –
11 | – | > 100 µM | 3 µM | 0.028 µM | 8 µM | > 1 h | > 1 h | 38 µM | CCCCNC(=O)C(=O)C(Cc1ccccc1)NC(=O)C(CC(C)C)NC(=O)OCc1ccccc1 (stereo not drawn) [Z-Leu-Phe-CONHnBu, Z-Leu-Phe-CONH-nBu] | – | – | – | – | –
12 | – | > 300 µM | 3 µM | 0.05 µM | 18 µM | > 1 h | > 1 h | 24 µM | CCCNC(=O)C(=O)C(Cc1ccccc1)NC(=O)C(CC(C)C)NC(=O)OCc1ccccc1 (stereo not drawn) [Z-Leu-Phe-CONHnPr, Z-Leu-Phe-CONH-nPr] | 15 µM | – | – | – | –
13 | – | > 150 µM | 4.5 µM | 0.0057 µM | 76 µM | > 1 h | > 1 h | 6.5 µM | CC(C)CC(NC(=O)OCc1ccccc1)C(=O)NC(Cc1ccccc1)C(=O)C(=O)O (stereo not drawn) [Z-Leu-Phe-COOH] | 0.0085 µM | – | significant inhibition | – | –
